Columns and labels:
[1] = target: Tyrosine-protein kinase JAK2 (Homo sapiens) (UniProt O60674); test: Inhibition of JAK2 JH1 catalytic domain (unknown origin) at 10 uM relative to control
[2] = target: Leucine-rich repeat serine/threonine-protein kinase 2 (Homo sapiens, UniProt Q5S007); test: Inhibition of wild type LRRK2 (unknown origin) assessed as inhibition of LRRKtide phosphorylation after 120 mins by radiometric assay in presence of [gamma-33P]-ATP
[3] = target: Leucine-rich repeat serine/threonine-protein kinase 2 (Homo sapiens, UniProt Q5S007, G2019S); test: Inhibition of LRRK2 G2019S mutant (unknown origin)
Sequence of Leucine-rich repeat serine/threonine-protein kinase 2 (Homo sapiens, UniProt Q5S007, G2019S) (Q5S007 whole entry G2019S): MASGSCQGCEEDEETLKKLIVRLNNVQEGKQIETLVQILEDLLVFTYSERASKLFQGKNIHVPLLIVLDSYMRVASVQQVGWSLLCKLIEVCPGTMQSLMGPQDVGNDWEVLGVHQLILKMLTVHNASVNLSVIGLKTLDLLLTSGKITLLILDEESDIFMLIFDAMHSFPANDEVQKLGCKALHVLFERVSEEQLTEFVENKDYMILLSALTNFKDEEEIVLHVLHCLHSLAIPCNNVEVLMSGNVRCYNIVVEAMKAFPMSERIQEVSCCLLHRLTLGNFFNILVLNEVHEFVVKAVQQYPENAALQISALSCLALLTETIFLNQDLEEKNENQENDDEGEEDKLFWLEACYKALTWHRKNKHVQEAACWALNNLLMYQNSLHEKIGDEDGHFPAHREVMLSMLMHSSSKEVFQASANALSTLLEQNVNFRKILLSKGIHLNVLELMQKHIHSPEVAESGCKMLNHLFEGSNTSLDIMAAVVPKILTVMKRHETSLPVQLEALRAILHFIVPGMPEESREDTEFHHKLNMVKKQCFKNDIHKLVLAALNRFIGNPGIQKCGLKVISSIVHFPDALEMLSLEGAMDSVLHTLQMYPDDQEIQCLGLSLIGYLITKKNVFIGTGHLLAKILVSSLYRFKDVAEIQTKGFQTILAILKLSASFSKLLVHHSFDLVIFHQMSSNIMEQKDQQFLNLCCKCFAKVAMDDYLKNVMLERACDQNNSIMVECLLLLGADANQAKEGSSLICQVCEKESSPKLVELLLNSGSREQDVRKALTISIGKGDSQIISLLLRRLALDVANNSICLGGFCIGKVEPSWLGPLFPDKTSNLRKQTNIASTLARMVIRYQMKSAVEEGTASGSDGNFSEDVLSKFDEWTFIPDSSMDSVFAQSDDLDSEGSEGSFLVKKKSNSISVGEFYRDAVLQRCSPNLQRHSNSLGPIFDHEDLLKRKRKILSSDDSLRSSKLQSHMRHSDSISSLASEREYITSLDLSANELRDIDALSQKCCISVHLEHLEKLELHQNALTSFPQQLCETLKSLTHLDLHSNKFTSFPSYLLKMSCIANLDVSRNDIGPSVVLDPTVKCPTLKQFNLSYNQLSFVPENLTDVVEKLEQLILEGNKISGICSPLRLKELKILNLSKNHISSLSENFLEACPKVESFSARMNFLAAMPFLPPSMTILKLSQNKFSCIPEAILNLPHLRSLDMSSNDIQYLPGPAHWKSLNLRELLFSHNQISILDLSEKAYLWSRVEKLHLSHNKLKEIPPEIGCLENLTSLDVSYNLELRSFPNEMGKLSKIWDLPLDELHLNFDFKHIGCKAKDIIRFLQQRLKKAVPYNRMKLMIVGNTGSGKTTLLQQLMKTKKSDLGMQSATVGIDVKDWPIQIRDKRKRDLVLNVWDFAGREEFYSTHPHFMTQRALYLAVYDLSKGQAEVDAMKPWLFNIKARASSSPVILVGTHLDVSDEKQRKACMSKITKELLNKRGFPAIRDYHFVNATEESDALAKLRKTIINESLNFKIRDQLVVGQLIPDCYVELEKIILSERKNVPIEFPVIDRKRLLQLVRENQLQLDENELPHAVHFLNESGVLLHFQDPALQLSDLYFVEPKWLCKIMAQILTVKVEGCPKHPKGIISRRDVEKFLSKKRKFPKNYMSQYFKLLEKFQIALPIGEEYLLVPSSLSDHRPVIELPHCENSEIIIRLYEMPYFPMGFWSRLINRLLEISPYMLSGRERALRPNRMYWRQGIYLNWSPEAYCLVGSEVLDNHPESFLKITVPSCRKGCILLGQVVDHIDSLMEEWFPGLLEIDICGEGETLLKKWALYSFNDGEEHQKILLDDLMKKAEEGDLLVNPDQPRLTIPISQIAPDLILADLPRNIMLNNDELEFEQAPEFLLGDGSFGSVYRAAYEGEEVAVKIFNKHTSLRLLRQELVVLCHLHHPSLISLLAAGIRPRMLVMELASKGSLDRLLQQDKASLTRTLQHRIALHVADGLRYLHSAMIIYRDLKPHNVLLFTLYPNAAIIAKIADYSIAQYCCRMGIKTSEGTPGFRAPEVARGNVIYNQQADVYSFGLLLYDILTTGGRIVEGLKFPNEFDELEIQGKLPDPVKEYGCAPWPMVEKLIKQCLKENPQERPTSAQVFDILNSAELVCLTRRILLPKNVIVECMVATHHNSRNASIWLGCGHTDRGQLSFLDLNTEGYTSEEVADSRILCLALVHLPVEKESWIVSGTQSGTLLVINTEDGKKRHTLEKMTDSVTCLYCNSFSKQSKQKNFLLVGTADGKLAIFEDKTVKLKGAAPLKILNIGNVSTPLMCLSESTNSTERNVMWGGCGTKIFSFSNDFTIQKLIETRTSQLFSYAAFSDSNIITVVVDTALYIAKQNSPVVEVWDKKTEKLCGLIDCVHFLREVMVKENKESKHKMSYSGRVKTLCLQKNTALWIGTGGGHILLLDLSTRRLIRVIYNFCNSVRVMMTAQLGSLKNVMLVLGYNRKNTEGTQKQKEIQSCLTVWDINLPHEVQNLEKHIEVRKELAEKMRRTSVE

Sequence of Leucine-rich repeat serine/threonine-protein kinase 2 (Homo sapiens, UniProt Q5S007) (Q5S007 whole entry): as the sequence (Q5S007 whole entry G2019S) above, with S2019G counted along it
Sequence of Tyrosine-protein kinase JAK2 (Homo sapiens) (O60674 whole entry, the tested form may be a part): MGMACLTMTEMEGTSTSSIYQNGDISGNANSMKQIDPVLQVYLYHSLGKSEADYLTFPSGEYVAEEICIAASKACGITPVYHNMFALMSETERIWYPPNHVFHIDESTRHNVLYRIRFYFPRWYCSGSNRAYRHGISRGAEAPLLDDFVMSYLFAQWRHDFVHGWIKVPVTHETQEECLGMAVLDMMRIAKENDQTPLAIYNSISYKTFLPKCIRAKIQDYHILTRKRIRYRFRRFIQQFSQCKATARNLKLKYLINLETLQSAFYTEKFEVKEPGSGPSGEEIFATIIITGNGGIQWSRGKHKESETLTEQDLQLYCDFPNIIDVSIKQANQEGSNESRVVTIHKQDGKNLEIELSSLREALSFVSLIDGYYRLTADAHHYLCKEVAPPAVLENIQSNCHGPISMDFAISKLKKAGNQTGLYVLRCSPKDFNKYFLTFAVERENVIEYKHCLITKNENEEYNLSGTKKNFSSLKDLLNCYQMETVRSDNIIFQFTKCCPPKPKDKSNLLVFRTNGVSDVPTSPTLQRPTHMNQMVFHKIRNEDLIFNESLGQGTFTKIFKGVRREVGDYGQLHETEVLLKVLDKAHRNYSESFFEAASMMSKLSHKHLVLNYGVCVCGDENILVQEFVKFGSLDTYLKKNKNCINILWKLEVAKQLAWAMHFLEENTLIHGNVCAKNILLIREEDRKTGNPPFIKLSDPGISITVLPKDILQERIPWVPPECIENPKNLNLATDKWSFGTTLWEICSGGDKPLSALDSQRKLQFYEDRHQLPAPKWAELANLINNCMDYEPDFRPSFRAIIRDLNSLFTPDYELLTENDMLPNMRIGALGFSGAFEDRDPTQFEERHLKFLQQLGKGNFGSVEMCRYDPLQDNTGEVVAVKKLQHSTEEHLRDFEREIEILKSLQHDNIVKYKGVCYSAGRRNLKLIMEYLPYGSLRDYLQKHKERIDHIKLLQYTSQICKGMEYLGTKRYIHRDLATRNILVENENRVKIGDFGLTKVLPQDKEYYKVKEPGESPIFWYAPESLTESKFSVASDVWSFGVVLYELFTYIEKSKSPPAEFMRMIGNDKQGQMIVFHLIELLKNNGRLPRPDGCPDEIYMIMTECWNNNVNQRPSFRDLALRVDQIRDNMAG

| Structure (SMILES) | inhibition [1] | IC50 [2] | IC50 [3] |
| --- | --- | --- | --- |
| N#Cc1ccc(Nc2ccc3[nH]c(=O)[nH]c3c2)c([N+](=O)[O-])c1 | 74% | – | – |
| CC(c1ccc(NC(=O)c2cc(C3CC3)[nH]n2)cc1)N1CCOCC1 (configuration not stated) | – | 4.8 µM | 1.9 µM |
| Cc1ccc(NC(=O)c2ccc(CN3CCNCC3)cc2)cc1Nc1nccc(-c2cccnc2)n1 | – | 4.6 µM | 3.3 µM |
| O=C(NCCO)c1ccc(Nc2nc(-c3ccccc3)c3cc(Cl)ccc3n2)cc1 | – | 2.8 µM | 2 µM |
